From patent publication US20060110376A1, “MDA-7 and free radicals in the treatment of cancer” (priority 2002, published 2006)

Experiments:
RT2 cells = experiment: MTT growth and trypan blue viability with NAC or Ad.Bcl-XL; format: cell-based, rat; details: 10 mM NAC 30 min before 6 Gy; Ad.mda-7 25 m.o.i.
Description: FIG. 15A-D. Ad.mda-7 reduces the expression of Bcl-XL and increases the levels of BAX, consistent with a causal role of Bcl-XL expression in the radiosensitizing effect. Cells were cultured for 24 h after plating then infected with Ad.mda-7 or CMV control viruses (25 m.o.i.). The cells were irradiated (6 Gy) 24 hours after infection. Cells were isolated 96 h after irradiation and processed. Panel A. Ad.mda-7 and radiation suppress the expression of Bcl-XL and enhance BAX levels in RT2 cells 96 h after irradiation. Cells were processed for SDS PAGE and immunoblotting. A representative study (n=3). Panel B. RT2 cells were cultured for 24 h then infected with Ad.mda-7 or CMV control viruses at 25 m.o.i. The cells were irradiated (6 Gy) 24 hours after infection. Cells were isolated 96 h after irradiation and the integrity of nuclear DNA under each condition determined. Data are from two representative experiments. Panel C. […] Cells were processed 96 h after irradiation and cell viability determined via trypan blue exclusion assay. […]
(§1) MIT Assay for Determination of Cellular Viability. […] The cytotoxicity of the various treatments was assessed four days after irradiation by measurement of cell viability by use of the MTT assay, as described previously (Mosmann, 1983, J. Immunol. Methods 65:55-63). The plates were read on a Dynatech MR600 Microplate Reader at 540 nm. […]

[1] = tested on: RCC cell lines A498 and UOK121N; experiment: MTT cell growth assay; format: cell-based, human; details: As2O3 0.5 μM; 96 h
Description: (§2) FIG. 25A-D. GST-MDA-7 causes a dose-dependent reduction in the proliferation of renal carcinoma cells but not primary renal epithelial cells. Cells were plated in 12 well plates (˜1×10^4 cells/well) and 24 h later treated with increasing concentrations of GST and GST-MDA-7 as indicated. Cell growth was determined via MTT assay 96 h after GST-MDA-7 treatment. Data are the means of 12 wells (one plate per condition, ±SEM) from a representative experiment using different preparations of GST-MDA-7 (n=3). Panel A. UOK121N cells. Panel B. A498 cells. Panel C. Primary renal epithelial cells. Panel D. Primary rat hepatocytes were isolated and cultured as described in Methods. Four hours after plating, hepatocytes were infected with either control CMV virus or Ad.mda-7 (at a multiplicity of infection of 50). […] Cell growth was determined via MTT assay 96 h after MDA-7 treatment. […]
(§3) FIG. 27A-C. […] Cell growth was determined via MTT assay 96 h after GST-MDA-7 treatment. […]
as §1, with “MTT” for “MIT”, “(McKinstry et al., 2002, Cancer Biol. Ther. 1:243-253).” for “(Mosmann, 1983, J. Immunol. Methods 65:55-63).”

[2] = tested on: primary renal epithelial cells; experiment: MTT cell growth assay; format: cell-based, human; details: low concentrations, each agent alone
Description: as §2, §3
as §1, with “MTT” for “MIT”, “(McKinstry et al., 2002, Cancer Biol. Ther. 1:243-253).” for “(Mosmann, 1983, J. Immunol. Methods 65:55-63).”

Row | Compound | effect of NAC on Ad.mda-7 + radiation cell killing and proliferation (RT2 cells) | effect of arsenic trioxide on growth suppression by GST-MDA-7 [1] | growth potential [2]
1 | CC(=O)N[C@@H](CS)C(=O)O [NAC, N-acetyl-cysteine] | abolished the enhancement in cell killing and reduction in proliferation |  | 
2 | arsenic trioxide |  | enhanced the growth suppressive effects of GST-MDA-7 | Neither low concentrations of arsenic trioxide nor GST-MDA-7 alone altered the growth potential
